In paper PMC11847724 (Neoplasia (New York, N.Y.), 2025):

Experiments:
[1] = Plasma pharmacokinetics of ESK-440 and metabolite CEP-38901; format: in vivo, human
rats = conditions: highest dose administered; cited from earlier work

With `CNC(=O)c1ccccc1Nc1nc(Nc2ccc3c(c2OC)CCC[C@H](N2CCN(CCO)CC2)C3)ncc1Cl` [ESK-440] the “Robs (observed accumulation ratio = AUCτ on day 15/AUC0-24 on day 1)” value ([1]; 25 mg/day (N = 3)) was 3.3 (0.76), the “Robs (observed accumulation ratio = AUCτ on day 15/AUC0-24 on day 1)” value ([1]; 50 mg/day (N = 3)) was 2.2 (1.11) and the “Robs (observed accumulation ratio = AUCτ on day 15/AUC0-24 on day 1)” value ([1]; 100 mg/day (N = 3)) was 4.2 (3.47). The “Robs (observed accumulation ratio = AUCτ on day 15/AUC0-24 on day 1)” value ([1]; 150 mg/day (N = 3)) was 3.1 (0.17), the “Robs (observed accumulation ratio = AUCτ on day 15/AUC0-24 on day 1)” value ([1]; 250 mg/day (N = 4)) was 2.9 (0.81) and the “Robs (observed accumulation ratio = AUCτ on day 15/AUC0-24 on day 1)” value ([1]; 350 mg/day (N = 4)) was 3.3 (0.63). For the same molecule, the “Robs (observed accumulation ratio = AUCτ on day 15/AUC0-24 on day 1)” value ([1]; 500 mg/day (N = 4)) was 2.4 (0.43), the “Robs (observed accumulation ratio = AUCτ on day 15/AUC0-24 on day 1)” value ([1]; 700 mg/day (N = 5)) was 2.2 (0.74) and the “dose dependence of Cmax and AUC0-24” value ([1]; day 1 and day 15, up to 500 mg/day) was “dose-proportional”. It also gave a half-life ([1]; human, plasma, oral) of 9.4 to 20.8 h, an AUC ([1]; human, plasma, oral, 25 mg/day) of 666 ng·h/mL and an AUC(0-t) ([1]; human, plasma, oral, 25 mg/day, AUC0-24, Day 1, 25 mg/day (N = 3)) of 222 ng·h/mL. It also gave an AUC(0-t) ([1]; human, plasma, oral, 25 mg/day, AUC0-t, Day 1, 25 mg/day (N = 3)) of 223 ng·h/mL, an AUC(0-t) ([1]; human, plasma, oral, 25 mg/day, AUC0-t, Day 15, 25 mg/day (N = 3)) of 666 ng·h/mL and a Cmax ([1]; human, plasma, oral, 25 mg/day, Day 1, 25 mg/day (N = 3)) of 20.7 ng/mL. It also gave a Cmax ([1]; human, plasma, oral, 25 mg/day, Day 15, 25 mg/day (N = 3)) of 36.7 ng/mL, a Tmax ([1]; human, plasma, oral, 25 mg/day, tmax, Day 1, 25 mg/day (N = 3), median (range)) of 3 h and a Tmax ([1]; human, plasma, oral, 25 mg/day, tmax, Day 15, 25 mg/day (N = 3), median (range)) of 3 h. The AUC ([1]; human, plasma, oral, 50 mg/day) was 995 ng·h/mL, the AUC(0-t) ([1]; human, plasma, oral, 50 mg/day, AUC0-24, Day 1, 50 mg/day (N = 3)) was 508 ng·h/mL and the AUC(0-t) ([1]; human, plasma, oral, 50 mg/day, AUC0-t, Day 1, 50 mg/day (N = 3)) was 517 ng·h/mL. For the same molecule, the AUC(0-t) ([1]; human, plasma, oral, 50 mg/day, AUC0-t, Day 15, 50 mg/day (N = 3)) was 1020 ng·h/mL, the Cmax ([1]; human, plasma, oral, 50 mg/day, Day 1, 50 mg/day (N = 3)) was 38.1 ng/mL and the Cmax ([1]; human, plasma, oral, 50 mg/day, Day 15, 50 mg/day (N = 3)) was 55.6 ng/mL. For the same molecule, the Tmax ([1]; human, plasma, oral, 50 mg/day, tmax, Day 1, 50 mg/day (N = 3), median (range)) was 3 h, the Tmax ([1]; human, plasma, oral, 50 mg/day, tmax, Day 15, 50 mg/day (N = 3), median (range)) was 3.9 h and the AUC ([1]; human, plasma, oral, 100 mg/day) was 5420 ng·h/mL. The AUC(0-t) ([1]; human, plasma, oral, 100 mg/day, AUC0-24, Day 1, 100 mg/day (N = 3)) was 1480 ng·h/mL, the AUC(0-t) ([1]; human, plasma, oral, 100 mg/day, AUC0-t, Day 1, 100 mg/day (N = 3)) was 1540 ng·h/mL and the AUC(0-t) ([1]; human, plasma, oral, 100 mg/day, AUC0-t, Day 15, 100 mg/day (N = 3)) was 5660 ng·h/mL. It also gave a Cmax ([1]; human, plasma, oral, 100 mg/day, Day 1, 100 mg/day (N = 3)) of 97.3 ng/mL, a Cmax ([1]; human, plasma, oral, 100 mg/day, Day 15, 100 mg/day (N = 3)) of 273 ng/mL and a Tmax ([1]; human, plasma, oral, 100 mg/day, tmax, Day 1, 100 mg/day (N = 3), median (range)) of 2 h. For the same molecule, the Tmax ([1]; human, plasma, oral, 100 mg/day, tmax, Day 15, 100 mg/day (N = 3), median (range)) was 4 h, the AUC ([1]; human, plasma, oral, 150 mg/day) was 4980 ng·h/mL and the AUC(0-t) ([1]; human, plasma, oral, 150 mg/day, AUC0-24, Day 1, 150 mg/day (N = 3)) was 1580 ng·h/mL. The AUC(0-t) ([1]; human, plasma, oral, 150 mg/day, AUC0-t, Day 1, 150 mg/day (N = 3)) was 1560 ng·h/mL, the AUC(0-t) ([1]; human, plasma, oral, 150 mg/day, AUC0-t, Day 15, 150 mg/day (N = 3)) was 4950 ng·h/mL and the Cmax ([1]; human, plasma, oral, 150 mg/day, Day 1, 150 mg/day (N = 3)) was 128 ng/mL. The Cmax ([1]; human, plasma, oral, 150 mg/day, Day 15, 150 mg/day (N = 3)) was 321 ng/mL, the Tmax ([1]; human, plasma, oral, 150 mg/day, tmax, Day 1, 150 mg/day (N = 3), median (range)) was 3.1 h and the Tmax ([1]; human, plasma, oral, 150 mg/day, tmax, Day 15, 150 mg/day (N = 3), median (range)) was 2.1 h. The AUC ([1]; human, plasma, oral, 250 mg/day) was 13300 ng·h/mL, the AUC(0-t) ([1]; human, plasma, oral, 250 mg/day, AUC0-24, Day 1, 250 mg/day (N = 4)) was 4740 ng·h/mL and the AUC(0-t) ([1]; human, plasma, oral, 250 mg/day, AUC0-t, Day 1, 250 mg/day (N = 4)) was 4850 ng·h/mL. The AUC(0-t) ([1]; human, plasma, oral, 250 mg/day, AUC0-t, Day 15, 250 mg/day (N = 4)) was 14200 ng·h/mL, the Cmax ([1]; human, plasma, oral, 250 mg/day, Day 1, 250 mg/day (N = 4)) was 435 ng/mL and the Cmax ([1]; human, plasma, oral, 250 mg/day, Day 15, 250 mg/day (N = 4)) was 732 ng/mL. For the same molecule, the Tmax ([1]; human, plasma, oral, 250 mg/day, tmax, Day 1, 250 mg/day (N = 4), median (range)) was 3.5 h, the Tmax ([1]; human, plasma, oral, 250 mg/day, tmax, Day 15, 250 mg/day (N = 4), median (range)) was 3.5 h and the AUC ([1]; human, plasma, oral, 350 mg/day) was 16800 ng·h/mL. The AUC(0-t) ([1]; human, plasma, oral, 350 mg/day, AUC0-24, Day 1, 350 mg/day (N = 4)) was 5180 ng·h/mL, the AUC(0-t) ([1]; human, plasma, oral, 350 mg/day, AUC0-t, Day 1, 350 mg/day (N = 4)) was 5320 ng·h/mL and the AUC(0-t) ([1]; human, plasma, oral, 350 mg/day, AUC0-t, Day 15, 350 mg/day (N = 4)) was 17900 ng·h/mL. For the same molecule, the Cmax ([1]; human, plasma, oral, 350 mg/day, Day 1, 350 mg/day (N = 4)) was 334 ng/mL, the Cmax ([1]; human, plasma, oral, 350 mg/day, Day 15, 350 mg/day (N = 4)) was 869 ng/mL and the Tmax ([1]; human, plasma, oral, 350 mg/day, tmax, Day 1, 350 mg/day (N = 4), median (range)) was 5 h. The Tmax ([1]; human, plasma, oral, 350 mg/day, tmax, Day 15, 350 mg/day (N = 4), median (range)) was 4 h, the AUC ([1]; human, plasma, oral, 500 mg/day) was 36500 ng·h/mL and the AUC(0-t) ([1]; human, plasma, oral, 500 mg/day, AUC0-24, Day 1, 500 mg/day (N = 5)) was 17700 ng·h/mL. For the same molecule, the AUC(0-t) ([1]; human, plasma, oral, 500 mg/day, AUC0-t, Day 1, 500 mg/day (N = 5)) was 17800 ng·h/mL, the AUC(0-t) ([1]; human, plasma, oral, 500 mg/day, AUC0-t, Day 15, 500 mg/day (N = 4)) was 37600 ng·h/mL and the Cmax ([1]; human, plasma, oral, 500 mg/day, Day 1, 500 mg/day (N = 5)) was 1160 ng/mL. The Cmax ([1]; human, plasma, oral, 500 mg/day, Day 15, 500 mg/day (N = 4)) was 1910 ng/mL, the Tmax ([1]; human, plasma, oral, 500 mg/day, tmax, Day 1, 500 mg/day (N = 5), median (range)) was 4.1 h and the Tmax ([1]; human, plasma, oral, 500 mg/day, tmax, Day 15, 500 mg/day (N = 4), median (range)) was 6.8 h. It also gave an AUC ([1]; human, plasma, oral, 700 mg/day) of 25700 ng·h/mL, an AUC(0-t) ([1]; human, plasma, oral, 700 mg/day, AUC0-24, Day 1, 700 mg/day (N = 5)) of 11300 ng·h/mL and an AUC(0-t) ([1]; human, plasma, oral, 700 mg/day, AUC0-t, Day 1, 700 mg/day (N = 5)) of 11500 ng·h/mL. It also gave an AUC(0-t) ([1]; human, plasma, oral, 700 mg/day, AUC0-t, Day 15, 700 mg/day (N = 5)) of 25900 ng·h/mL, a Cmax ([1]; human, plasma, oral, 700 mg/day, Day 1, 700 mg/day (N = 5)) of 839 ng/mL and a Cmax ([1]; human, plasma, oral, 700 mg/day, Day 15, 700 mg/day (N = 5)) of 1310 ng/mL. For the same molecule, the Tmax ([1]; human, plasma, oral, 700 mg/day, tmax, Day 1, 700 mg/day (N = 5), median (range)) was 4 h, the Tmax ([1]; human, plasma, oral, 700 mg/day, tmax, Day 15, 700 mg/day (N = 5), median (range)) was 6.1 h and the Tmax ([1]; human, plasma, oral, median tmax, range across dose levels, day 1) was 2 to 5 h. The Tmax ([1]; human, plasma, oral, median tmax, range across dose levels, day 15) was 2.1 to 6.8 h and the “highest non-severely toxic dose (HNSTD)” value (rats) was 30 mg/kg.
